Measured values published in patent US20250195498A1, “INHIBITOR OF CELLULAR PURINE NUCLEOTIDE SALVAGE PATHWAY ENZYME FOR USE IN THE TREATMENT AND/OR PREVENTION OF HELICOBACTER PYLORI INFECTION AND/OR DISEASE ASSOCIATED WITH SUCH INFECTION AND PHARMACEUTICAL COMPOSITION COMPRISING THE SAME” (UNIWERSYTET WARSZAWSKI, priority 2022, published 2025).
Values joined by “and” are separate entries in the source; they are usually repeats but may differ in a detail not shown here. Equal values may be shown once. Read-outs that look alike come from different tables or passages of the source. Marks after values point to notes of the source that are not given here. Values belong to the molecule of their own block, whether it stands above or below them.

Assays:
H. pylori strain 26695 = assay: Growth curve method / MIC in liquid culture, strain 26695; type: cell-based, Helicobacter pylori; conditions: strain 26695; for inhibition of bacterial growth: concentrations up to 5 mM
Procedure: (§1) The representative PNP inhibitor from H. pylori included in this study was immucillin A. The experiment was conducted using the growth curve method (two-fold serial dilutions in liquid medium). The tested H. pylori strains were cultured in Petri dishes with BHI solid medium supplemented with 10% FBS and 1% H. pylori Selective Supplement antibiotic kit, in anaerostats under microaerophilic conditions (5% 02, 10% CO2, 85% N2) at 37° C. for 3 days. Liquid culture of H. pylori was conducted overnight with shaking at 37° C. under microaerophilic conditions in BHI medium supplemented with 10% FBS and 1% H. pylori Selective Supplement antibiotic kit. Subsequently, for the essential experiment of determining the minimum inhibitory concentration (MIC), double strengthened liquid BHI medium was prepared, that is, supplemented with 20% FBS and a 2% set of H. pylori Selective Supplement antibiotics.
(§2) Bacterial proliferation inhibition experiments were carried out in 24-deep-well 2 ml flat-bottomed plates at a solution volume per well of 0.5 ml. In a single well, double strengthened (relative to the concentration planned for testing) solutions of the test inhibitor and double strengthened liquid BHI medium inoculated with H. pylori (10^4-10^5 CFU/ml in the final volume in the well, corresponding to the optical density of the culture OD600=0.05) were mixed together in a 1:1 ratio.
(§3) Kanamycin at a concentration of 25 μg/ml (Irie et al., 1997) was used as a positive control, while Mili-Q deionized water and BHI medium not inoculated with bacteria were used as negative controls. Plates were shaken at 37° C., under microaerophilic conditions. […] After 24 hours, the OD600 of samples containing the negative control, i.e. with Mili-Q deionized water, was about 1.2-1.4, corresponding to a bacterial concentration of about […].
(§4) In addition, the method proposed by Knezevic et al. (2018) was used to check whether the observed OD600 was from live bacterial cells. For this purpose, an equal volume of Christensen's double strength urea broth (that is, containing twice the concentration of all components) was added to the wells after incubation, and the plates were additionally incubated for 4 hours in an oxygen atmosphere at 37° C. During incubation, in wells with urease produced by live bacteria, urea is converted to ammonia and carbon dioxide, changing the pH of the solution and thus the colour of the phenol red indicator contained in the medium (from orange to purple).
(§5) All experiments were performed in triplicate.
The experiments were carried out using the growth curve method as described in Example 3, and the results obtained for two of the compounds tested are shown in FIG. 5. As the water solubility of the compounds tested, with the exception of 2,6-diCl-Pu, is relatively poor, two experiments were carried out: the first with the maximum concentration possible under the experimental conditions in aqueous solution with a small admixture of DMSO, and the second with higher concentrations that led to partial precipitation of the compound.
The antibacterial activity of two compounds, mefloquine (in the form of hydrochloride) and quinine, described in the literature as potent in vitro inhibitors of the PNP enzyme from Plasmodium falciparum (Dziekan et al., 2019), was tested. Using a two-fold serial dilution method in liquid medium (as described in Example 3), the MIC values for mefloquine and quinine were determined against clinical H. pylori strains resistant to MTZ, CLR and MTZ+CLR (M26, M91, M92 and M93), as well as the reference H. pylori strain 26695. Four clinical H. pylori strains isolated from adults, from primary infections (the subjects had never previously been treated against H. pylori infection) were tested. These strains come from the collection of the Department of Microbiology of the Medical University of Wroclaw and were obtained due to collaboration with Prof. Grażyna Gościniak, MD, PhD. […]

H. pylori = conditions: 2021, cited from earlier work; for MIC (literature): MTZ according to EUCAST, kanamycin according to Irie et al., 1997
[1] = molecular target: T1, AdSS from H. pylori strain 26695 (Helicobacter pylori, UniProt P56137); assay: AdSS enzyme activity assay (adenylosuccinate formation, 280 nm); type: biochemical
T1 construct: made in house; host or cells: E. coli BL21 (DE3)
T1 sequence (P56137 1-411): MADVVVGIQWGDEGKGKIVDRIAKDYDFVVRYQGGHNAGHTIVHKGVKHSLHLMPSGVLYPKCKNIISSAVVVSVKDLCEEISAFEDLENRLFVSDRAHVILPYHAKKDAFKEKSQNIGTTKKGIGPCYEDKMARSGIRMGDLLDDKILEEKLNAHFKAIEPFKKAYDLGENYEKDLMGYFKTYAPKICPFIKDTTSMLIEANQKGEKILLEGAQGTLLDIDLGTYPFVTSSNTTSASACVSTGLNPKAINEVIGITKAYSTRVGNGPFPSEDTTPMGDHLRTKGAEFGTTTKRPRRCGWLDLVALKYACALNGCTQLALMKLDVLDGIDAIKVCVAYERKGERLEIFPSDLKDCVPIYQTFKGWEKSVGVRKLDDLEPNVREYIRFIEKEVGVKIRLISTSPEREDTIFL
Procedure: Enzymatic activity measurements were carried out in the similar manner as described in Bubić et al. (2018), at 25° C., in cuvettes with an optical path length of 1 cm containing 1 ml of reaction mixture consisting of 20 mM Hepes/NaOH buffer pH 7.7, 1 mM MgSO4 and the substrates, GTP, IMP and Asp. Saturating concentrations of substrates, namely GTP: 0.06 mM, IMP: 0.15 mM and Asp: 5 mM, were used to measure specific activity. The extinction coefficient at 280 nm of 1.17×10^4 M^−1 cm^−1 (adenylosuccinate formation) was used to calculate the concentration of the product formed (Rudolph and Fromm 1969). One unit (U) of AdSS specific activity is defined as μmol of adenylosuccinate produced per minute at 25° C. Specific activity is expressed as units of enzymatic activity per mg of protein (U/mg).
Inhibition of AdSS by PLP was examined first at saturation with all enzyme substrates and with increasing concentrations of the PLP inhibitor.
To determine the extent to which PLP-induced inactivation develops over time, the enzyme at low concentration (0.022 μM) was incubated at 25° C. in Hepes/NaOH buffer pH 7.0, in the presence of 1.11 mM MgSO4, 5.55 mM Asp, 167 μM IMP and PLP at various concentrations (ranging between 0.03 μM and 8.1 μM). The mixture contained all components necessary for the reaction with the exception of GTP, which, according to Dong and Fromm (1990), competes with PLP. Aliquots of 900 μl were taken from the incubated mixture at specified time intervals, placed in a cuvette and 100 μl of 0.6 mM GTP solution was added to initiate the reaction. The enzyme activity was determined and analysed in the known manner as described above.
Exponential decays were fitted to the data obtained for each concentration and the reaction rate constant of the inactivation process, k, and the residual enzymatic activity observed when the system reached equilibrium, A∞, were obtained as fitting parameters. From these parameters, the half-life of the inactivation process activity, t1/2, was calculated. The dependence of these three parameters on PLP concentration is shown in the lower panel of FIG. 12.
The inhibition of AdSS from H. pylori by pyridoxal (PI-h) was studied at saturation with all enzyme substrates and with increasing concentrations of the inhibitor, similar to that for PLP in Example 10a).

H. pylori strain N6 = assay: Growth curve method / MIC, strain N6; type: cell-based, Helicobacter pylori; conditions: strain N6; concentrations up to 5 mM
Procedure: as §1, §2, §3, §4, §5
(§6) Inhibition by PLP and its metabolic precursors of the growth of H. pylori strains: 26695, N6 and P12 in culture was investigated using the growth curve method as described in Example 3. From these experiments, the minimum inhibitory concentration was determined as the lowest concentration of a compound that inhibits the visible growth of the bacteria, compared to growth in control samples without the tested compounds. All experiments were carried out in triplicate.

H. pylori strain P12 = assay: Growth curve method / MIC, strain P12; type: cell-based, Helicobacter pylori; conditions: strain P12; concentrations up to 5 mM
Procedure: as §1, §2, §3, §4, §5, §6

[2] = tested on: H. pylori strain M26 (MTZ + CLR resistant); assay: Growth curve method / MIC, resistant strain M26; type: cell-based, Helicobacter pylori; conditions: for MIC: strain M26, MTZ + CLR resistant
Procedure: as §1, §2, §3, §4, §5
(§7) The antibacterial activity of two compounds, mefloquine (in the form of hydrochloride) and quinine, described in the literature as potent in vitro inhibitors of the PNP enzyme from Plasmodium falciparum (Dziekan et al., 2019), was tested. Using a two-fold serial dilution method in liquid medium (as described in Example 3), the MIC values for mefloquine and quinine were determined against clinical H. pylori strains resistant to MTZ, CLR and MTZ+CLR (M26, M91, M92 and M93), as well as the reference H. pylori strain 26695. Four clinical H. pylori strains isolated from adults, from primary infections (the subjects had never previously been treated against H. pylori infection) were tested. These strains come from the collection of the Department of Microbiology of the Medical University of Wroclaw and were obtained due to collaboration with Prof. Grażyna Gościniak, MD, PhD. The tested compounds belong to organic substances and are soluble in DMSO. The maximum tested concentration of quinine in H. pylori culture was 0.56 mM, and that of mefloquine was 2.25 mM. […] On each occasion, the effect of DMSO alone on the growth of the H. pylori strains tested was also checked. […] Kanamycin was used as a positive control and Mili-Q deionised water as a negative control. All experiments were carried out in triplicate. […]

[3] = tested on: H. pylori strain M91 (MTZ + CLR resistant); assay: Growth curve method / MIC, resistant strain M91; type: cell-based, Helicobacter pylori; conditions: for MIC: strain M91, MTZ + CLR resistant
Procedure: as §1, §2, §3, §4, §5, §7

[4] = tested on: H. pylori strain M92 (CLR resistant); assay: Growth curve method / MIC, resistant strain M92; type: cell-based, Helicobacter pylori; conditions: for MIC: strain M92, CLR resistant
Procedure: as §1, §2, §3, §4, §5, §7

[5] = tested on: H. pylori strain M93 (MTZ resistant); assay: Growth curve method / MIC, resistant strain M93; type: cell-based, Helicobacter pylori; conditions: for MIC: strain M93, MTZ resistant
Procedure: as §1, §2, §3, §4, §5, §7

[6] = Helicobacter pylori, read-out: MIC

SMILES: Cc1ncc([N+](=O)[O-])n1CCO [Metronidazole, metronidazole]
- inhibition at 12 µM (H. pylori strain 26695; Helicobacter pylori, metronidazole 12 μM (2 μg/ml), not maximum solubility, read-out: % inhibition of H. pylori cell cultures): 89 to 92%
- MIC (literature) (H. pylori): 8 ^f μg/ml and 47 μM
- MIC (literature) (H. pylori; listed as MTZ): 47 μM and 8 μg/ml

- inhibition of AdSS from H. pylori [1]: strongly inhibits
SMILES: O=CN(O)CC(=O)O [hadacidin]
- inhibition of proliferation of H. pylori (H. pylori; Wojtyś et al.): does not inhibit the proliferation of bacteria

SMILES: Cc1ncc(CO)c(CN)c1O.Cl.Cl [pyridoxamine dihydrochloride]
- inhibition of bacterial growth (H. pylori strain 26695): no inhibition of bacterial growth
- inhibition of bacterial growth (H. pylori strain N6): no inhibition of bacterial growth
- inhibition of bacterial growth (H. pylori strain P12): no inhibition of bacterial growth

SMILES: Cc1ncc(CO)c(CO)c1O [pyridoxine]
- inhibition of bacterial growth (H. pylori strain 26695): no inhibition of bacterial growth
- inhibition of bacterial growth (H. pylori strain N6): no inhibition of bacterial growth
- inhibition of bacterial growth (H. pylori strain P12): no inhibition of bacterial growth

SMILES: C=C[C@H]1C[N@@]2CC[C@H]1C[C@H]2[C@H](O)c1ccnc2ccc(OC)cc12 [quinine]
- inhibition at 400 µM (H. pylori strain 26695; Helicobacter pylori, quinine 0.4 mM, read-out: percentage of growth inhibition): 91%
- MIC (H. pylori strain 26695; [6]): ≥ 400 µM and ≥ 130 µg/mL
- MIC [2, 6]: ≥ 400 µM and ≥ 130 µg/mL
- inhibition at 400 µM ([2]; Helicobacter pylori, strain M26, quinine 0.4 mM, read-out: percentage of growth inhibition): 87%
- MIC [2]: ≥0.4 mM and (≥130 μg/ml)
- MIC [3, 6]: ≥ 560 µM and ≥ 182 µg/mL
- inhibition at 400 µM ([3]; Helicobacter pylori, strain M91, quinine 0.4 mM, read-out: percentage of growth inhibition): 78%
- inhibition at 560 µM ([3]; Helicobacter pylori, strain M91, quinine 0.56 mM (highest tested), read-out: percentage of growth inhibition): 86%
- MIC [3]: ≥0.56 mM and (≥182 μg/ml)
- MIC [4, 6]: ≥ 400 µM and ≥ 130 µg/mL
- inhibition at 400 µM ([4]; Helicobacter pylori, strain M92, quinine 0.4 mM, read-out: percentage of growth inhibition): 76%
- MIC [4]: ≥0.4 mM and (≥130 μg/ml)
- MIC [5, 6]: ≥ 400 µM and ≥ 130 µg/mL
- inhibition at 400 µM ([5]; Helicobacter pylori, strain M93, quinine 0.4 mM, read-out: percentage of growth inhibition): 91%
- MIC [5]: ≥0.4 mM and (≥130 μg/ml)
